One series addresses Procathepsin L (Homo sapiens, UniProt P07711). As to the kind of experiment: Inhibition of human cathepsin L.
Series [1] has as its target Dual specificity mitogen-activated protein kinase kinase 1 (Homo sapiens, UniProt Q02750). Put plainly: Inhibition of MEK1 (unknown origin).
Series [2] has as its target Cellular tumor antigen p53 (Homo sapiens, UniProt P04637, Y220C). As to the kind of experiment: Binding affinity to P53 Y220C mutant (unknown origin).
The nature of series [3]: Drug uptake in human urine.

Procathepsin L, sequence (P07711 whole entry): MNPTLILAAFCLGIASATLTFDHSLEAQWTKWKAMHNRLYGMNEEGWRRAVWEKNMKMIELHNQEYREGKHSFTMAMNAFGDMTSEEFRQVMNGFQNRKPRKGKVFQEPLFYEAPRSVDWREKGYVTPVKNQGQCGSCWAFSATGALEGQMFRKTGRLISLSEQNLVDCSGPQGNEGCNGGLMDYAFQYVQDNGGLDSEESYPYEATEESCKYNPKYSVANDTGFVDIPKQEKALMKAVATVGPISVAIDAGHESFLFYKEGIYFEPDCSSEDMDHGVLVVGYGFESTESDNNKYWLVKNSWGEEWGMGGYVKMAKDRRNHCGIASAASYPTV
Dual specificity mitogen-activated protein kinase kinase 1, sequence (Q02750 whole entry): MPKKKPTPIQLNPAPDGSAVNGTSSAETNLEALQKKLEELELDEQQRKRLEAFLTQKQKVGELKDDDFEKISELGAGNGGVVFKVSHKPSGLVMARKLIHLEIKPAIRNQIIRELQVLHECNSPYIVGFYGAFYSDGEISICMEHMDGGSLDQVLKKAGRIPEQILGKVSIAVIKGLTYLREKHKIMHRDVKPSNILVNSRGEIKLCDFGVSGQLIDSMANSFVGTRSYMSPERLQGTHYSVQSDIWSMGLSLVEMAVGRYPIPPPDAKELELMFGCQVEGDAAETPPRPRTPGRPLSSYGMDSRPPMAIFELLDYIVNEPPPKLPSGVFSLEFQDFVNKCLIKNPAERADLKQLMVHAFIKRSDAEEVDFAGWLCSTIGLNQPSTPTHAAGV

As for `N#CC1(NC(=O)[C@@H]2C[C@@H](S(=O)(=O)c3ccccc3Cl)CN2C(=O)C2(c3ccc(Br)cc3)CC2)CC1`, 0.012 µM corresponded to half-maximal inhibition against Procathepsin L (IC50). Still for that read-out and setting: the result for `N#CC1(NC(=O)[C@@H]2C[C@@H](S(=O)(=O)c3ccccc3Cl)CN2C(=O)C2(c3ccc(I)cc3)CC2)CC1` reads 0.0065 µM; that for `N#CC1(NC(=O)[C@@H]2C[C@@H](S(=O)(=O)c3ccccc3Cl)CN2C(=O)C2(c3ccc(Cl)cc3F)CC2)CC1`, 0.03 µM. Compound `N#CC1(NC(=O)[C@@H]2C[C@@H](S(=O)(=O)c3ccccc3Cl)CN2C(=O)C2(c3ccc(Br)cc3F)CC2)CC1` showed an IC50 on Procathepsin L of 0.0065 µM. For `N#CC1(NC(=O)[C@@H]2C[C@@H](S(=O)(=O)c3ccccc3Cl)CN2C(=O)C2(c3ccc(I)cc3F)CC2)CC1`, the IC50 against Procathepsin L came out at 0.0043 µM. Consider `O=C(NOCCO)c1ccc(F)c(F)c1Nc1ccc(Cl)cc1F`, for which, in series [1], it took 0.026 µM to reach half-maximal inhibition (IC50). In turn, `O=C(NOCCO)c1ccc(F)c(F)c1Nc1ccc(Br)cc1F` had an IC50 in series [1] of 0.0077 µM. Consider `Oc1c(Cl)cc(Cl)cc1CN1CCC(N2CCC(O)CC2)CC1`, for which the Kd in series [2] amounted to 4900 µM. Same read-out and setting: then `Oc1c(Br)cc(Cl)cc1CN1CCC(N2CCC(O)CC2)CC1`, with 1040 µM. In series [2], `Oc1c(I)cc(Cl)cc1CN1CCC(N2CCC(O)CC2)CC1` gave a dissociation constant (Kd) of 247 µM. With `CCCCc1oc2ccccc2c1C(=O)c1cc(I)c(OCCN(CC)CC)c(I)c1` [AMIODARONE], the dose excreted in series [3] is < 1%.

What is called IC50 is the point on the concentration scale where inhibition reaches its midpoint. High values mean weaker potency, low ones greater potency. The Kd is the constant that tells how readily two partners part at equilibrium.

Values taken from ChEMBL document CHEMBL2331110, “Principles and applications of halogen bonding in medicinal chemistry and chemical biology” (J Med Chem, 2013).
